The nature of the data set: xn = mol fraction of the nth substance listed. Particulars: 298.15 K, 100 kPa.

Compound `CC(=O)[O-].Cn1cc[nH+]c1` + CC(=O)[O-].C[NH+]1CCOCC1 gave an electrical conductivity (x1 = 1) of 0.448 S/m.

`CC(=O)[O-].C[NH+]1CCOCC1` + CC(=O)[O-].Cn1cc[nH+]c1 gave an electrical conductivity (x2 = 0) of 0.0229 S/m; an electrical conductivity (x2 = 0.1) of 0.0447 S/m; an electrical conductivity (x2 = 0.19) of 0.0662 S/m; an electrical conductivity (x2 = 0.31) of 0.0959 S/m; an electrical conductivity (x2 = 0.4) of 0.158 S/m; an electrical conductivity (x2 = 0.5) of 0.202 S/m. Also, the electrical conductivity reads like this: (x2 = 0.59) 0.242 S/m; (x2 = 0.8) 0.331 S/m.

Broadly, the viscosity is the internal friction of a fluid under shear. Turning to `CCCC[N+]1(C)CCCC1.O=S(=O)([N-]S(=O)(=O)C(F)(F)F)C(F)(F)F` + CC(=O)[O-].Cn1cc[nH+]c1, where the note is “x2 = 0”, the viscosity is reported as 74.9 mPa·s.

Turning to `CCCC[n+]1ccn(C)c1.O=S(=O)([N-]S(=O)(=O)C(F)(F)F)C(F)(F)F` + CC(=O)[O-].Cn1cc[nH+]c1, the viscosity (x2 = 0) turned out to be 49.3 mPa·s.

For the compound `COS(=O)(=O)[O-].Cn1cc[n+](C)c1` + CC(=O)[O-].Cn1cc[nH+]c1, for the setting “x2 = 0”, the viscosity was found to be 93.4 mPa·s.

Turning to `CC(=O)[O-].Cn1cc[nH+]c1` + CCCC[N+]1(C)CCCC1.O=S(=O)([N-]S(=O)(=O)C(F)(F)F)C(F)(F)F, the viscosity (x1 = 0.1) came out at 59.5 mPa·s; the viscosity (x1 = 0.31) is 38.8 mPa·s; the viscosity (x1 = 0.4) amounted to 33.3 mPa·s; the viscosity (x1 = 0.59) came to 21.1 mPa·s; the viscosity (x1 = 0.71) amounted to 15.9 mPa·s; the viscosity (x1 = 0.8) is recorded as 12.1 mPa·s.

For `CC(=O)[O-].Cn1cc[nH+]c1` + CCCC[n+]1ccn(C)c1.O=S(=O)([N-]S(=O)(=O)C(F)(F)F)C(F)(F)F, the viscosity is recorded as 42.8 mPa·s (x1 = 0.1); 38.4 mPa·s (x1 = 0.19); 33.5 mPa·s (x1 = 0.31); 28.8 mPa·s (x1 = 0.4); 24.5 mPa·s (x1 = 0.5); 20.2 mPa·s (x1 = 0.59). Further, the viscosity is 15.5 mPa·s (x1 = 0.71), 12.2 mPa·s (x1 = 0.8) and 6.22 mPa·s (x1 = 1).

For the compound `CC(=O)[O-].Cn1cc[nH+]c1` + COS(=O)(=O)[O-].Cn1cc[n+](C)c1, the viscosity came out at 19.9 mPa·s (x1 = 0.71), 13.6 mPa·s (x1 = 0.8) and 6.22 mPa·s (x1 = 1).

For the origin of these results see a compilation of properties of binary mixtures (doi:10.1016/j.molliq.2018.12.024).
